Results on one compound are retold here after article PMC9557039 (iScience, 2022).

For the assay, the target named is UGT720-269-1 (Siraitia grosvenorii, UniProt P0DO66). The note with it: 1 mM UDPG, 10 mM MgCl2, 40 °C; crude enzyme in screening assay.
Sequence of UGT720-269-1 (P0DO66 whole entry): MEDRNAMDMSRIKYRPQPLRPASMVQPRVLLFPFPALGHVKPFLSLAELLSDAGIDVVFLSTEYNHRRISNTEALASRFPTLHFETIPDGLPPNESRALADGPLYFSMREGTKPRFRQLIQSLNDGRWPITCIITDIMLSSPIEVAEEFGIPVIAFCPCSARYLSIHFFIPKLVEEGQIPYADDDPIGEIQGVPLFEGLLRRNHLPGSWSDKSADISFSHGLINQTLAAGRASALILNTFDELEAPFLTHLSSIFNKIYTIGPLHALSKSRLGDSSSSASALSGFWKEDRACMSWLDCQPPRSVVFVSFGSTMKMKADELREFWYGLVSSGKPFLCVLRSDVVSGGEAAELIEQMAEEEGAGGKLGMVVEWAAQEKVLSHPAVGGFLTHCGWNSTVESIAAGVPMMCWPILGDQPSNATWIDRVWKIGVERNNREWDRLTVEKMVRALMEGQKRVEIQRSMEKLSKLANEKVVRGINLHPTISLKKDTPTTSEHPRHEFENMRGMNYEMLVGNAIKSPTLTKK

As to `C[C@H](CC[C@@H](O)C(C)(C)O)[C@H]1CC[C@@]2(C)[C@@H]3CC=C4[C@@H](CC[C@H](O)C4(C)C)[C@]3(C)[C@H](O)C[C@]12C` [mogrol], the HPLC product analysis entry was “low catalytic property of UGT720-269-1 in the sequential glycosylation of mogrol to IIE”.
